In patent US20140243292A1, “SUBSITUTED 2-(CHROMAN-6-YLOXYL)-THIAZOLES AND THEIR USE AS PHARMACEUTICALS” (Sanofi, priority 2011, published 2014) one finds IC50 data, which are given here for 49 molecules.

Where a name gives a salt, the structure may show the parent alone.

The assay addresses T1, human NCX1 (Homo sapiens, UniProt P32418).
T1 construct: expressed in transfected cells
Kind of assay: NCX1 inhibition, reverse mode (Ca2+ influx into cells), FLIPR Fluo-4 assay. The assay is classed as cell-based. The following applies: inhibition of NCX1 in reverse mode (Ca2+ influx into cells); read-out: NCX1rv IC50. From the text: The sodium/calcium exchanger NCX1 can transport calcium ions and sodium ions through the cell membrane. The transport is an exchange of Ca^2+ and Na^+ in two directions depending on membrane potential and ion gradients. At the first direction, named “forward mode” or “calcium export mode”, Ca^2+ is transported out of the cell and Na^+ is transported into the cell. At the other direction, named “reverse mode” or “calcium import mode”, the transport directions are vice versa. The effect of the compounds of the invention on NCX1 was determined in CHO cells stably expressing human NCX1 (gene symbol SLC8A1; cf. WO 2009/115238). The assay is based on the monitoring of intracellular Ca^2+ concentrations using a calcium-sensitive fluorescence dye which is detected by means of a FLIPR device (Fluorimetric Imaging Plate Reader, Molecular Devices).
The assay is based on the monitoring of intracellular Ca^2+ concentrations using the calcium-sensitive dye Fluo-4. CHO cells expressing NCX1 were loaded with the dye by means of the acetoxymethyl ester Fluo-4 AM (Invitrogen, F14202), which is cleaved intracellularly by esterase activity to yield the charged species of free Fluo-4. After an preincubation period with the test compound, Gramicidine (Sigma, G5002) was added. Gramicidine is an ionophor for Na^+ ions mediating an increase of intracellular Na^+ ions. Consequently, intracellular Na^+ ions are exchanged against extracellular Ca^2+ ions (Ca^2+ influx, reverse mode). The intracellular elevation of Ca^2+ ions was detected by measuring the fluorescence of Fluo-4 at a wavelength of 520 nm by a FLIPR device.
Briefly, for the reverse mode transport assay 18000 cells per well were seeded into a 96 well microplate (Corning COSTAR 3904) and incubated overnight in culture medium (1× Nut Mix F12 (Ham) (Gibco, 21765-029); 10% (v/v) fetal calf serum (PAA Gold, A15-649); 450 μg/ml Geneticin (Gibco, 10131-027)). A total volume of 100 μl medium per well was used. For the preparation of the FLIPR assay, the culture medium was removed from the plates and 100 μl of dye solution (2 μM Fluo-4 AM; 0.02% (v/v) Pluronic F-127 (20%, Invitrogen, P3000MP); 0.1% (v/v) bovine albumin solution (30% (v/v), Sigma, A9205) in assay buffer (133.8 mM NaCl (Sigma, S5886); 4.7 mM KCl (Sigma, P3911); 1.25 mM MgCl2 (Merck, 1.05833.0250); 3.5 mM CaCl2 (Merck, 1.02083.0250); 5 mM glucose (Sigma, G7021); 10 mM Hepes (Sigma, H4034); 0.01% (v/v) Pluronic F-127 (5%, Sigma, P2443); 2.5 mM Probenecid (Maybridge, SB00915EB); pH 7.4)) were added into each well. The plates were incubated in the dark at room temperature for 80 min. After the incubation period, the dye solution was removed and the wells were washed with 100 μl of assay buffer. Then 80 μl of a solution of the test compound in assay buffer in different concentrations were added into the wells. The plates were incubated at 16° C. for 45 min. Meanwhile a 60 μM solution of Gramicidine in assay buffer (4° C.) was prepared and stored in the wells of a 96 well microplate (96 well microplate, polypropylene, U-shape (Greiner Bio-One, 650201)) at 4° C. until measurement was started. The fluorescence monitoring was performed at 240 measuring points with measurement intervals of 2 sec. After the fifth measuring point, 40 μl of the Gramicidine solution were added to each well of the assay plates to give a final Gramicidine concentration of 20 μM. For the determination of the IC50 values the minimal fluorescence value was subtracted from the maximal fluorescence value for all measuring points. The calculation of the IC50 values via the percentage inhibitions of Ca^2+ influx into cells (reverse mode) effected by the test compound was performed in Biost@t Speed 2.0.
`CN(C)Cc1cnc(Oc2ccc3c(c2)CCC(c2ccccc2)O3)s1` (stereo not shown) [compound 119]: the IC50 (commonly the point on the concentration scale where inhibition reaches its midpoint) was found to be 400 nM.

On to `NCc1cnc(Oc2ccc3c(c2)CCC(c2ccccc2)O3)s1` (stereo not shown) [compound 57, C-[2-(2-Phenyl-chroman-6-yloxy)-thiazol-5-yl]-methylamine], for which the IC50 came out at 100 nM.

As to `NCC1CCCN1C(=O)c1cnc(Oc2ccc3c(c2)CC[C@@H](c2ccccc2)O3)s1` (stereo partly shown) [compound 291], the IC50 worked out at 400 nM.

For the molecule `O=C(NCCc1ccncc1)c1cnc(Oc2ccc3c(c2)CCC(c2ccccc2)O3)s1` (stereo not shown) [compound 61, hydrochloride], the IC50 worked out at 200 nM.

Regarding `COC(=O)C(C)(CC(C)C)NC(=O)c1cnc(Oc2ccc3c(c2)CC[C@@H](c2ccccc2)O3)s1` (stereo partly shown) [compound 231], the IC50 worked out at 1500 nM.

As to “2-[2-(2,6-Dimethyl-phenyl)-chroman-6-yloxy]-thiazole-5-carboxylic acid [2-(2-oxo-imidazolidin-1-yl)-ethyl]-amide [compound 347]”, the IC50 is 1500 nM.

With `Cc1cc(CNCc2cnc(Oc3ccc4c(c3)CCC(c3ccccc3)O4)s2)nn1C` (stereo not shown) [compound 147], the IC50 was 300 nM.

For the molecule `Cc1nc(Oc2ccc3c(c2)CCC(c2ccccc2)O3)sc1C(=O)NCCc1ccncc1` (stereo not shown) [compound 170, hydrochloride], the IC50 is 300 nM.

In the case of `CC(C)C[C@@H](NC(=O)c1cnc(Oc2ccc3c(c2)CC[C@@H](c2ccccc2)O3)s1)C(=O)O` [compound 237], the IC50 is 800 nM.

With `N[C@@H](CO)C(=O)NCc1cnc(Oc2ccc3c(c2)CCC(c2ccccc2)O3)s1` (stereo partly shown) [compound 340, hydrochloride], the IC50 was found to be 900 nM.

Consider `N[C@@H](Cc1ccccc1)C(=O)NCc1cnc(Oc2ccc3c(c2)CC[C@@H](c2ccccc2)O3)s1` [compound 304], for which the IC50 stood at 1900 nM.

For the molecule `Cc1ccn(CCNCc2cnc(Oc3ccc4c(c3)CCC(c3ccccc3)O4)s2)n1` (stereo not shown) [compound 136], the IC50 was 500 nM.

For the molecule `COc1cc(C(=O)NCc2cnc(Oc3ccc4c(c3)CCC(c3ccccc3)O4)s2)ccn1` (stereo not shown) [compound 76], the half-maximal inhibitory concentration (IC50) was determined as 5600 nM.

On to `O=C(NCc1ccnc(Cl)c1)c1cnc(Oc2ccc3c(c2)CCC(c2ccc(Cl)nc2)O3)s1` (stereo not shown) [compound 278, hydrochloride], for which the IC50 was 1300 nM.

Take `O=C(NCc1cnc(Oc2ccc3c(c2)CCC(c2ccccc2)O3)s1)c1ccno1` (stereo not shown) [compound 48]: the IC50 was 100 nM.

For the molecule `O=C(NCc1ccncc1)c1sc(Oc2ccc3c(c2)CCC(c2ccccc2)O3)nc1C(F)(F)F` (stereo not shown) [compound 30, hydrochloride], the IC50 is 300 nM.

Regarding `O=C(NCC(O)CO)c1cnc(Oc2ccc3c(c2)CCC(c2ccccc2)O3)s1` (stereo not shown) [compound 305], the IC50 was 300 nM.

Consider `O=C(NCCO)c1csc(Oc2ccc3c(c2)CC[C@@H](c2ccccc2)O3)n1` [compound 350], for which the IC50 amounted to 120 nM.

`O=C(NCc1ccno1)c1cnc(Oc2ccc3c(c2)CCC(c2cc(F)ccc2F)O3)s1` (stereo not shown) [compound 217]: the concentration for half-maximal inhibition (IC50) amounted to 200 nM.

Consider `Cc1ccc(F)cc1C1CCc2cc(Oc3ncc(C(=O)NCc4ccno4)s3)ccc2O1` (stereo not shown) [compound 344], for which the IC50 came to 800 nM.

On to `Cc1cccc(C)c1C1CCc2cc(Oc3ncc(C(=O)NCCO)s3)ccc2O1` (stereo not shown) [compound 337], for which the IC50 was found to be 7600 nM.

As to `CN1CCOc2cc(S(=O)(=O)NCc3cnc(Oc4ccc5c(c4)CCC(c4ccccc4)O5)s3)ccc21` (stereo not shown) [compound 123], the IC50 came to 1100 nM.

For `CC(C)CCNCc1cnc(Oc2ccc3c(c2)CCC(c2ccccc2)O3)s1` (stereo not shown) [compound 115], the IC50 came to 600 nM.

On to `O=C(O)CNCc1cnc(Oc2ccc3c(c2)CC[C@@H](c2ccccc2)O3)s1` [compound 246], for which the IC50 came to 600 nM.

In the case of `CCn1nccc1C(=O)NCc1cnc(Oc2ccc3c(c2)CCC(c2ccccc2)O3)s1` (stereo not shown) [compound 70], the half-maximal inhibitory concentration (IC50) worked out at 300 nM.

As for `CC1(C)CN(C(=O)c2cnc(Oc3ccc4c(c3)CC[C@@H](c3ccccc3)O4)s2)CCN1` [compound 282], the half-inhibitory concentration (IC50) is 1200 nM.

Turning to `O=C(O)CN1CCN(C(=O)c2cnc(Oc3ccc4c(c3)CC[C@@H](c3ccccc3)O4)s2)CC1` [compound 198], the IC50 was 1300 nM.

Regarding `CCOC(=O)[C@H](C)NC(=O)c1cnc(Oc2ccc3c(c2)CCC(c2cccnc2)O3)s1` (stereo partly shown) [compound 276], the IC50 is 400 nM.

Turning to `Cc1nc(Oc2ccc3c(c2)CCC(c2ccccc2)O3)sc1C(=O)NCc1ccno1` (stereo not shown) [compound 166], the IC50 came to 300 nM.

Turning to `O=C(NCc1cnc(Oc2ccc3c(c2)CCC(c2ccccc2)O3)s1)c1ccncc1` (stereo not shown) [compound 79], the IC50 was 200 nM.

Turning to `CN(CC(=O)O)C(=O)c1cnc(Oc2ccc3c(c2)CC[C@@H](c2ccccc2)O3)s1` [compound 190], the IC50 came to 900 nM.

In the case of `Nc1cc(CNC(=O)c2cnc(Oc3ccc4c(c3)CCC(c3cccc(F)c3)O4)s2)ccn1` (stereo not shown) [compound 12], the IC50 was 200 nM.

Regarding `O=C(NC1CCCC1O)c1cnc(Oc2ccc3c(c2)CCC(c2ccccc2)O3)s1` (stereo not shown) [compound 355], the IC50 worked out at 250 nM.

On to `Cc1ccc(C(=O)NCc2cnc(Oc3ccc4c(c3)CCC(c3ccccc3)O4)s2)cn1` (stereo not shown) [compound 64], for which the IC50 is 1300 nM.

`O=C(NCC1CCCCN1)c1cnc(Oc2ccc3c(c2)CC[C@@H](c2ccccc2)O3)s1` (stereo partly shown) [compound 287]: the IC50 was found to be 500 nM.

As to `Cc1cc2c(cc1Oc1ncc(C(=O)NCCO)s1)CCC(c1ccccc1C)O2` (stereo not shown) [compound 357], the IC50 was 600 nM.

`O=C(NCc1ccncc1)c1cnc(Oc2ccc3c(c2)CC[C@H](c2ccccc2)O3)s1` [compound 37]: the IC50 turned out to be 200 nM.

For the molecule `CCOC(=O)C1(NC(=O)c2cnc(Oc3ccc4c(c3)CC[C@@H](c3ccccc3)O4)s2)CC1` [compound 188], the IC50 was determined as 600 nM.

Turning to `C[C@H](NC(=O)c1cnc(Oc2ccc3c(c2)CCC(c2ccccc2)O3)s1)c1nccs1` (stereo partly shown) [compound 54], the IC50 came out at 200 nM.

For the molecule `CC(C)[C@@H](CO)NC(=O)c1cnc(Oc2ccc3c(c2)CC[C@@H](c2ccccc2)O3)s1` [compound 203], the IC50 was found to be 400 nM.

For the molecule `Cc1c(C(C)NCc2cnc(Oc3ccc4c(c3)CCC(c3ccccc3)O4)s2)cnn1C` (stereo not shown) [compound 148], the concentration for half-maximal inhibition (IC50) turned out to be 400 nM.

With `CC1(C(=O)O)CCN(C(=O)c2cnc(Oc3ccc4c(c3)CC[C@@H](c3ccccc3)O4)s2)C1` (stereo partly shown) [compound 239], the IC50 stood at 2400 nM.

With `O=C(NCc1nnc2ccccn12)c1cnc(Oc2ccc3c(c2)CCC(c2cccc(F)c2)O3)s1` (stereo not shown) [compound 17, hydrochloride], the IC50 stood at 200 nM.

For the molecule `Cc1cc(CNCc2cnc(Oc3ccc4c(c3)CCC(c3ccccc3)O4)s2)no1` (stereo not shown) [compound 140], the concentration for half-maximal inhibition (IC50) came out at 200 nM.

As for `CCOC(=O)[C@@H](NC(=O)c1cnc(Oc2ccc3c(c2)CC[C@@H](c2ccccc2)O3)s1)C(C)C` [compound 186], the IC50 was 700 nM.

With `O=C(NCc1ccno1)c1cnc(Oc2ccc3c(c2)CCC(c2ccccc2)O3)s1` (stereo not shown) [compound 24], the IC50 amounted to 100 nM.

In the case of `O=C(NCc1ccnc(Cl)c1)c1cnc(Oc2ccc3c(c2)CCC(c2ccsc2)O3)s1` (stereo not shown) [compound 211, hydrochloride], the IC50 worked out at 400 nM.

As for `O=C(NCc1ccno1)c1csc(Oc2ccc3c(c2)CC[C@@H](c2ccccc2)O3)n1` [compound 353], the IC50 amounted to 92 nM.

For the molecule `CC(O)CNC(=O)c1cnc(Oc2ccc3c(c2)CCC(c2ccccc2)O3)s1` (stereo not shown) [compound 354], the IC50 worked out at 160 nM.
